Common to all, as to type: ADME, organism-based
For series [1], the species on record is Mus musculus. Briefly: Skin irritant activity in NMRI mouse ear assessed as irritant dose 50 per ear after 24 hrs. Conditions: in vivo, topical_or_ocular.
The species entered for series [2] is Mus musculus. Briefly: Skin irritant activity in NMRI mouse ear assessed as irritancy 50 after 24 hrs. Conditions: in vivo.
Series [3] is filed under the species Mus musculus. The series can be described thus: Skin irritant activity in SIM mouse ear assessed as irritation unit per ear after 24 hrs. Conditions: in vivo.

The record followed here is ChEMBL document CHEMBL1151117, “Irritant principles of the spurge family (Euphorbiaceae). XIII. Oligocyclic and macrocyclic diterpene esters from latices of some Euphorbia species utilized as source plants of honey” (J Nat Prod, 1988).

Structures are written as SMILES. Bounds are passed on as bounds.

Turning to `C/C=C(/C)C(=O)O[C@@]12C[C@@H](C)[C@@]3(O)[C@@H](C=C(COC(C)=O)C[C@]4(O)C(=O)C(C)=C[C@@H]34)[C@@H]1[C@@]2(C)COC(=O)C(C)CC` (some centres not stated), the Activity in series [1] is 2.4 nmol; in series [2], 0.4 nmol⁻¹. With `C/C=C(\C)C(=O)O[C@@]12C[C@@H](C)[C@@]3(O)[C@@H](C=C(CO)C[C@]4(O)C(=O)C(C)=C[C@@H]34)[C@@H]1C2(C)C`, the values for the Activity in series [1] and in series [2] were 0.28 nmol and 3.6 nmol⁻¹, respectively.

As for `CC(=O)O[C@@]12C[C@@H](C)[C@@]3(O)[C@@H](C=C(CO)C[C@]4(O)C(=O)C(C)=C[C@@H]34)[C@@H]1C2(C)C` [PROSTRATIN], the Activity in series [3] is recorded as above 7 nmol.

In the case of `CCCCCCCCCCCCCC(=O)O[C@@H]1[C@@H](C)[C@@]2(O)[C@@H](C=C(CO)C[C@]3(O)C(=O)C(C)=C[C@@H]23)[C@@H]2C(C)(C)[C@]12OC(C)=O` [PHORBOL MYRISTATE ACETATE], the Activity in series [3] worked out at 0.05 µg; in series [1] it was 0.016 nmol; in series [2] it was 63 nmol⁻¹. For the compound `C/C=C(\C)C(=O)O[C@@H]1[C@@H]2[C@H]([C@H](OC(C)=O)[C@H](OC(C)=O)/C(C)=C/[C@@]34O[C@@]3(C[C@H](C)[C@@H]4OC(C)=O)C(=O)[C@@H]1C)C2(C)C`, the Activity in series [3] is above 1000 µg. Still for that read-out and setting: the figure for `C/C=C(\C)C(=O)O[C@H]1[C@H]2[C@@H]([C@@H](O)[C@@H](C)C(=O)[C@@]34C[C@H](C)[C@H](OC(C)=O)[C@]3(/C=C(\C)[C@H]1OC(=O)C(C)CC)O4)C2(C)C` (some centres not stated) is above 1000 µg; for `C/C=C(\C)C(=O)O[C@@H]1[C@@H]2[C@H]([C@H](OC(=O)/C(C)=C/C)[C@H](OC(C)=O)/C(C)=C/[C@@]34O[C@@]3(C[C@H](C)[C@@H]4O)C(=O)[C@@H]1C)C2(C)C` it is above 1000 µg.

In the case of `C/C=C(/C)C(=O)O[C@@]12C[C@@H](C)[C@@]3(O)[C@@H](C=C(COC(C)=O)C[C@]4(O)C(=O)C(C)=C[C@@H]34)[C@@H]1[C@@]2(C)COC(=O)C(C)C`, the Activity was determined as 0.91 nmol in series [1] and 1.1 nmol⁻¹ in series [2]. On the same counts, the results for `CCC(C)C(=O)O[C@@]12C[C@@H](C)[C@@]3(O)[C@@H](C=C(COC(C)=O)C[C@]4(O)C(=O)C(C)=C[C@@H]34)[C@@H]1C2(C)C` (some centres not stated) are 1.5 nmol and 0.7 nmol⁻¹. Take `C/C=C(\C)C(=O)O[C@@H]1[C@@H]2[C@H]([C@H](OC(=O)C(C)CC)[C@H](OC(C)=O)/C(C)=C/[C@@]34O[C@@]3(C[C@H](C)[C@@H]4OC(C)=O)C(=O)[C@@H]1C)C2(C)C` (some centres not stated): in series [3], the Activity was above 1000 µg.

Regarding `CCC(C)C(=O)O[C@@]12C[C@@H](C)[C@@]3(O)[C@@H](C=C(CO)C[C@]4(O)C(=O)C(C)=C[C@@H]34)[C@@H]1C2(C)C` (some centres not stated), the Activity worked out at 0.83 nmol in series [1] and 1.2 nmol⁻¹ in series [2]. In the case of `C/C=C(\C)C(=O)O[C@@H]1[C@@H]2[C@H]([C@H](OC(=O)/C(C)=C/C)[C@H](OC(C)=O)/C(C)=C/[C@@]34O[C@@]3(C[C@H](C)[C@@H]4OC(C)=O)C(=O)[C@@H]1C)C2(C)C`, the Activity in series [3] is above 1000 µg.

As for `CC1=C[C@H]2[C@@]3(O)[C@H](C)C[C@]4(OC(=O)C(C)C)[C@H]([C@@H]3C=C(CO)C[C@]2(O)C1=O)C4(C)C`, the Activity was 0.53 nmol in series [1] and 1.9 nmol⁻¹ in series [2].

Regarding `CC(=O)OCC1=C[C@H]2[C@@H]3C(C)(C)[C@]3(OC(=O)C(C)C)C[C@@H](C)[C@]2(O)[C@@H]2C=C(C)C(=O)[C@@]2(O)C1`, the Activity in series [1] turned out to be 1.5 nmol; in series [2], 0.7 nmol⁻¹. For `C/C=C(\C)C(=O)O[C@@]12C[C@@H](C)[C@@]3(O)[C@@H](C=C(COC(C)=O)C[C@]4(O)C(=O)C(C)=C[C@@H]34)[C@@H]1C2(C)C`, in that order: 1.2 nmol and 0.8 nmol⁻¹.

`C/C=C(/C)C(=O)O[C@@]12C[C@@H](C)[C@@]3(O)[C@@H](C=C(CO)C[C@]4(O)C(=O)C(C)=C[C@@H]34)[C@@H]1[C@@]2(C)COC(=O)C(C)C`: the results for the Activity in series [1] and in series [2] were 0.25 nmol and 4 nmol⁻¹, respectively.
